In PubChem BioAssay (NCI):
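GI50 marks 50% less growth. Definition used: TGI = concentration required for complete inhibition of growth.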

What was measured:
Assay in all cases: inhibition of tumour cell growth, NCI panel, 384-well format
[1] = system: 786-0 renal
[2] = system: A498 renal
[3] = system: A549 NSCLC
[4] = system: ACHN renal
[5] = system: BT-549 breast
[6] = system: CAKI-1 renal
[7] = system: CCRF-CEM leukemia
[8] = system: COLO 205 colon
[9] = system: DU-145 prostate
[10] = system: EKVX NSCLC
[11] = system: HCC-2998 colon
[12] = system: HCT-116 colon
[13] = system: HCT-15 colon
[14] = system: HL-60(TB) leukemia
[15] = system: HOP-62 NSCLC
[16] = system: HOP-92 NSCLC
[17] = system: HS 578T breast
[18] = system: HT29 colon
[19] = system: IGROV1 ovarian
[20] = system: K-562 leukemia
[21] = system: KM12 colon
[22] = system: LOX IMVI melanoma
[23] = system: M14 melanoma
[24] = system: MALME-3M melanoma
[25] = system: MCF7 breast
[26] = system: MDA-MB-231 breast
[27] = system: MDA-MB-435 melanoma
[28] = system: MDA-MB-468 breast
[29] = system: MOLT-4 leukemia
[30] = system: NCI-H226 lung
[31] = system: NCI-H23 lung
[32] = system: NCI-H322M lung
[33] = system: NCI-H460 NSCLC
[34] = system: NCI-H522 lung
[35] = system: NCI/ADR-RES ovarian
[36] = system: OVCAR-3 ovarian
[37] = system: OVCAR-4 ovarian
[38] = system: OVCAR-5 ovarian
[39] = system: OVCAR-8 ovarian
[40] = system: PC-3 prostate
[41] = system: RPMI-8226 leukemia
[42] = system: RXF 393 renal
[43] = system: SF-268 CNS
[44] = system: SF-295 CNS
[45] = system: SF-539 CNS
[46] = system: SK-MEL-28 melanoma
[47] = system: SK-MEL-5 melanoma
[48] = system: SK-OV-3 ovarian
[49] = system: SN12C renal
[50] = system: SNB-19 CNS
[51] = system: SNB-75 CNS
[52] = system: SR leukemia
[53] = system: SW-620 colon
[54] = system: T-47D breast
[55] = system: TK-10 renal
[56] = system: U251 glioblastoma
[57] = system: UACC-257 melanoma
[58] = system: UO-31 renal

With CC(C)(C)c1[nH]cnc1/C=c1\[nH]c(=O)/c(=C/c2ccccc2)[nH]c1=O the GI50 [1] was < 10 nM, the TGI [1] was 27 nM and the GI50 [2] was < 10 nM. The TGI [2] was 265 nM, the GI50 [3] was < 10 nM and the TGI [3] was 16700 nM. The GI50 [4] was < 10 nM, the TGI [4] was 13300 nM and the GI50 [5] was < 10 nM. For the same compound, the TGI [5] was 25.5 nM, the GI50 [6] was < 10 nM and the TGI [6] was 13000 nM. The GI50 [7] was < 10 nM, the TGI [7] was < 10 nM and the GI50 [8] was < 10 nM. The TGI [8] was < 10 nM, the GI50 [9] was < 10 nM and the TGI [9] was 21.9 nM. For the same compound, the GI50 [10] was < 10 nM, the TGI [10] was 13000 nM and the GI50 [11] was < 10 nM. The TGI [11] was 22.1 nM, the GI50 [12] was < 10 nM and the TGI [12] was 39.3 nM. For the same compound, the GI50 [13] was < 10 nM, the TGI [13] was 22.5 nM and the GI50 [14] was < 10 nM. For the same compound, the TGI [14] was < 10 nM, the GI50 [15] was < 10 nM and the TGI [15] was 304 nM. The GI50 [16] was < 10 nM, the TGI [16] was 2810 nM and the GI50 [17] was < 10 nM. The TGI [17] was < 10 nM, the GI50 [18] was < 10 nM and the TGI [18] was 12900 nM. The GI50 [19] was < 10 nM, the TGI [19] was 10200 nM and the GI50 [20] was < 10 nM. For the same compound, the TGI [20] was < 10 nM, the GI50 [21] was < 10 nM and the TGI [21] was 1250 nM. The GI50 [22] was < 10 nM, the TGI [22] was 30.5 nM and the GI50 [23] was < 10 nM. The TGI [23] was < 10 nM, the GI50 [24] was < 10 nM and the TGI [24] was 16500 nM. The GI50 [25] was < 10 nM, the TGI [25] was 10300 nM and the GI50 [26] was 10.7 nM. The TGI [26] was 19700 nM, the GI50 [27] was < 10 nM and the TGI [27] was < 10 nM. The GI50 [28] was 10.3 nM, the TGI [28] was 24.6 nM and the GI50 [29] was < 10 nM. For the same compound, the TGI [29] was < 10 nM, the GI50 [30] was < 10 nM and the TGI [30] was 26.2 nM. For the same compound, the GI50 [31] was < 10 nM, the TGI [31] was < 10 nM and the GI50 [32] was < 10 nM. The TGI [32] was 15200 nM, the GI50 [33] was < 10 nM and the TGI [33] was < 10 nM. The GI50 [34] was < 10 nM, the TGI [34] was < 10 nM and the GI50 [35] was < 10 nM. The TGI [35] was < 10 nM, the GI50 [36] was < 10 nM and the TGI [36] was < 10 nM. For the same compound, the GI50 [37] was < 10 nM, the TGI [37] was 3720 nM and the GI50 [38] was 10900 nM. For the same compound, the TGI [38] was 32900 nM, the GI50 [39] was < 10 nM and the TGI [39] was 15.9 nM. For the same compound, the GI50 [40] was < 10 nM, the TGI [40] was 14900 nM and the GI50 [41] was < 10 nM. For the same compound, the TGI [41] was < 10 nM, the GI50 [42] was < 10 nM and the TGI [42] was < 10 nM. The GI50 [43] was < 10 nM, the TGI [43] was 49.1 nM and the GI50 [44] was < 10 nM. For the same compound, the TGI [44] was < 10 nM, the GI50 [45] was < 10 nM and the TGI [45] was < 10 nM. The GI50 [46] was 1750 nM, the TGI [46] was 20400 nM and the GI50 [47] was < 10 nM. For the same compound, the TGI [47] was < 10 nM, the GI50 [48] was < 10 nM and the TGI [48] was 746 nM. For the same compound, the GI50 [49] was < 10 nM, the TGI [49] was 4230 nM and the GI50 [50] was < 10 nM. For the same compound, the TGI [50] was 11000 nM, the GI50 [51] was < 10 nM and the TGI [51] was 78.3 nM. The GI50 [52] was < 10 nM, the TGI [52] was < 10 nM and the GI50 [53] was < 10 nM. The TGI [53] was 17500 nM, the GI50 [54] was < 10 nM and the TGI [54] was 7150 nM. The GI50 [55] was < 10 nM, the TGI [55] was 16400 nM and the GI50 [56] was < 10 nM. The TGI [56] was 16.8 nM, the GI50 [57] was < 10 nM and the TGI [57] was 18800 nM. The GI50 [58] was < 10 nM and the TGI [58] was 14500 nM.
